Results taken from patent US8193184B2, “Substituted sulphonamides, process for their preparation, pharmaceutical composition comprising thereof and their use” (Unimed Pharma, SPOL, S.R.O., priority 2007, dated 2012).
Where “and” joins values, the source holds several entries; their conditions need not be identical. Identical values can stand only once. Counter-ions that a name gives are not always drawn.

How the values were obtained:
intraocular pressure = assay: Intraocular pressure changes in vivo after application into the conjunctiva sac (Tono-Pen XL); design: species or system rabbit (Chinchilla); conditions: for Measured intraocular pressure values, RE, 0.5 h / Measured intraocular pressure values, RE, 0.5 h, Average / Measured intraocular pressure values, RE, 1 h, Average / Measured intraocular pressure values, RE, 1 h / Measured intraocular pressure values, RE, 4 h, Average / Measured intraocular pressure values, RE, 4 h / Measured intraocular pressure values, RE, 7 h, Average / Measured intraocular pressure values, RE, 7 h / Measured intraocular pressure values, RE, 25 h, Average / Measured intraocular pressure values, RE, 25 h / Measured intraocular pressure values, RE, 31 h, Average / Measured intraocular pressure values, RE, 31 h: treated right eye
Experimental: The basic pharmacologic profile of the compounds of the general formula (I), which was focused on the determination of the intraocular pressure changes, was evaluated in in vivo conditions. In addition to the main potential therapeutic effect, related side responses were also monitored. In the experiments the laboratory animals of chinchilla species were used, because the normotension eye of this animal species provides the best reactivity. Adult male Chinchilla (in the age of one to one and half year), of 2000-3500 g, examined by veterinarian, without disease symptoms, grown under the standard conditions was used as the animal model. The solutions of tested compounds of the general formula (I) were always freshly prepared. The distilled water was used as a control. Measurement apparatus Tono-Pen®XL from Medtronic XOMED was used for measurement of the intraocular pressure. The intraocular pressure values were expressed in mmHg. At the first day of the experiment the solutions of the tested compounds of the general formula (I) were applied twice a day, specifically at 8.00 a.m. and 2.00 p.m. At the second day of the experiment the application was still in the 30th hour (i.e. at the second day at 2.00 p.m.). The solution of each compound was always applied in an amount of 2 drops into the right conjunctiva sac. The left eye served as a control. Into the conjunctiva sac of this eye (left), the same number of drop (2 drops) of distilled water was applied. The distilled water served as placebo. […] Standard requirements were kept in all measurements. The measurements started in the morning at 7.00 a.m. The measurement was accomplished with Tono-Pen® XL apparatus by soft perpendicular touch of the probe to the cornea of the rabbit five times successively. The measurement was accomplished on the both cornea (right and left eyes) before administration of the sample. Thus the normal values of the intraocular pressure for both the right and left eyes were obtained. Then at 8.00 a.m. 2 drops of tested compound were applied in the right eye and 2 drops of the distilled water were applied in the left eye. Further measurements were carried out after half an hour (at 8.30 a.m.), after one hour (at 9.00 a.m.), after four hours (at 12.00), after seven hours (at 3.00 p.m.), after 25 hours (on the second day at 9.00 a.m.) and after 31 hours from the application in the right eye (on the second day at 3.00 p.m). […] Moreover, 2 drops of the tested compound in the right eye and 2 drops of distilled water in the left eye were applied again in the same group of the rabbits in the first day at 2.00 p.m. (i.e. 6 hours after application of the first dose of the compound) and in the second day of the experiment at 2.00 p.m. (i.e. in the 30th hour of the experiment). Thus the changes caused by the repeated administration of the compound can be monitored. For each compound and each concentration 10 independent assays were carried out.

With `CCN(CC)CCCNC(=O)c1ccc(S(N)(=O)=O)cc1` (as salt: ammonium) [II-4, 4-Sulfamoyl-N—(N,N-diethylaminopropyl)benzamide] as the molecule, how does the melting point read?
Its melting point is 122 to 123 °C.

For `NS(=O)(=O)c1ccc(S(=O)(=O)NCCCN2CCOCC2)cc1` [Compound I-6, N-(Morpholinopropyl)benzene-1,4-bis(sulphonamide)], which “Measured intraocular pressure values, RE, 0.5 h” value (intraocular pressure; I-6 2% solution, 2 drops, 0.5 h after application, individual animals n 1-10, RE average before application (N) 12.9) is on record?
Its value is 7 mmHg (2×) and 8 mmHg and 9 mmHg (4×) and 11 mmHg and 12 mmHg and 15 mmHg.

What about the “Measured intraocular pressure values, RE, 0.5 h, Average” value (intraocular pressure; I-6 2%, 0.5 h, average of 10, N RE average 12.9) of the same molecule?
The value was 9.6 mmHg.

And the “Measured intraocular pressure values, RE, 1 h, Average” value (intraocular pressure; I-6 2%, 1 h, average of 10, N RE average 12.9)?
The value was 10.3 mmHg.

What about the “Measured intraocular pressure values, RE, 1 h” value (intraocular pressure; I-6 2%, 1 h, individual animals, N RE average 12.9) of the same molecule?
Its value is 9 mmHg (3×) and 8 mmHg (2×) and 14 mmHg and 11 mmHg and 10 mmHg and 13 mmHg and 12 mmHg.

What about the “Measured intraocular pressure values, RE, 4 h, Average” value (intraocular pressure; I-6 2%, 4 h, average of 10, N RE average 12.9) of the same molecule?
The value was 8.4 mmHg.

What about the “Measured intraocular pressure values, RE, 4 h” value (intraocular pressure; I-6 2%, 4 h, individual animals, N RE average 12.9) of the same molecule?
Its value is 6 mmHg and 8 mmHg (3×) and 9 mmHg and 12 mmHg (2×) and 7 mmHg (3×).

What about the “Measured intraocular pressure values, RE, 7 h, Average” value (intraocular pressure; I-6 2%, 7 h (second dose at 6 h), average of 10, N RE average 12.9) of the same molecule?
The value was 7.3 mmHg.

What about the “Measured intraocular pressure values, RE, 7 h” value (intraocular pressure; I-6 2%, 7 h (second dose at 6 h), individual animals, N RE average 12.9) of the same molecule?
The value was 8 mmHg (3×) and 10 mmHg (2×) and 5 mmHg (2×) and 6 mmHg (2×) and 7 mmHg.

And the “Measured intraocular pressure values, RE, 25 h, Average” value (intraocular pressure; I-6 2%, 25 h, average of 10, N RE average 12.9)?
The value was 10.7 mmHg.

What about the “Measured intraocular pressure values, RE, 25 h” value (intraocular pressure; I-6 2%, 25 h, individual animals, N RE average 12.9) of the same molecule?
The value was 9 mmHg (4×) and 12 mmHg (4×) and 15 mmHg and 8 mmHg.

What about the “Measured intraocular pressure values, RE, 31 h, Average” value (intraocular pressure; I-6 2%, 31 h (dose at 30 h), average of 10, N RE average 12.9) of the same molecule?
The value was 10.4 mmHg.

What about the “Measured intraocular pressure values, RE, 31 h” value (intraocular pressure; I-6 2%, 31 h (dose at 30 h), individual animals, N RE average 12.9) of the same molecule?
The value was 10 mmHg (2×) and 9 mmHg (3×) and 11 mmHg (2×) and 13 mmHg and 8 mmHg and 14 mmHg.

And the “Measured intraocular pressure values, RE, 0.5 h” value (intraocular pressure; I-6 2.5% solution, 2 drops, 0.5 h, individual animals n 1-10, N RE average 15.3)?
Its value is 11 mmHg (2×) and 10 mmHg (3×) and 12 mmHg (2×) and 9 mmHg (2×) and 16 mmHg.

And the “Measured intraocular pressure values, RE, 0.5 h, Average” value (intraocular pressure; I-6 2.5%, 0.5 h, average of 10, N RE average 15.3)?
Its value is 11 mmHg.

And the “Measured intraocular pressure values, RE, 1 h, Average” value (intraocular pressure; I-6 2.5%, 1 h, average of 10, N RE average 15.3)?
The value was 10.5 mmHg.

What about the “Measured intraocular pressure values, RE, 1 h” value (intraocular pressure; I-6 2.5%, 1 h, individual animals, N RE average 15.3) of the same molecule?
Its value is 10 mmHg (2×) and 9 mmHg (5×) and 13 mmHg and 16 mmHg and 11 mmHg.

And the “Measured intraocular pressure values, RE, 4 h, Average” value (intraocular pressure; I-6 2.5%, 4 h, average of 10, N RE average 15.3)?
The value was 10.1 mmHg.

What about the “Measured intraocular pressure values, RE, 4 h” value (intraocular pressure; I-6 2.5%, 4 h, individual animals, N RE average 15.3) of the same molecule?
The value was 8 mmHg and 9 mmHg (3×) and 11 mmHg (3×) and 10 mmHg (2×) and 13 mmHg.

And the “Measured intraocular pressure values, RE, 7 h, Average” value (intraocular pressure; I-6 2.5%, 7 h (second dose at 6 h), average of 10, N RE average 15.3)?
The value was 9.6 mmHg.

And the “Measured intraocular pressure values, RE, 7 h” value (intraocular pressure; I-6 2.5%, 7 h (second dose at 6 h), individual animals, N RE average 15.3)?
Its value is 9 mmHg (4×) and 8 mmHg (2×) and 10 mmHg and 11 mmHg and 16 mmHg and 7 mmHg.

And the “Measured intraocular pressure values, RE, 25 h, Average” value (intraocular pressure; I-6 2.5%, 25 h, average of 10, N RE average 15.3)?
Its value is 13 mmHg.

And the “Measured intraocular pressure values, RE, 25 h” value (intraocular pressure; I-6 2.5%, 25 h, individual animals, N RE average 15.3)?
The value was 12 mmHg (3×) and 13 mmHg (3×) and 15 mmHg (2×) and 14 mmHg and 11 mmHg.

And the “Measured intraocular pressure values, RE, 31 h, Average” value (intraocular pressure; I-6 2.5%, 31 h (dose at 30 h), average of 10, N RE average 15.3)?
The value was 11.2 mmHg.

What about the “Measured intraocular pressure values, RE, 31 h” value (intraocular pressure; I-6 2.5%, 31 h (dose at 30 h), individual animals, N RE average 15.3) of the same molecule?
The value was 9 mmHg (4×) and 10 mmHg (2×) and 16 mmHg and 13 mmHg and 15 mmHg and 12 mmHg.

With `NS(=O)(=O)c1ccc(C(=O)NCCCN2CCOCC2)cc1` [II-6, 4-Sulfamoyl-N-(morpholinopropyl)benzamide] as the molecule, how does the “Measured intraocular pressure values, PO, 0.5 h” value (intraocular pressure; II-6 1% solution, 2 drops, treated right eye (PO), 0.5 h, individual animals n 1-10, N PO average 15.8) read?
Its value is 8 mmHg and 11 mmHg (2×) and 10 mmHg (3×) and 9 mmHg (2×) and 14 mmHg (2×).

And the “Measured intraocular pressure values, PO, 0.5 h, Average” value (intraocular pressure; II-6 1%, treated right eye (PO), 0.5 h, average of 10, N PO average 15.8)?
The value was 10.6 mmHg.

And the “Measured intraocular pressure values, PO, 1 h, Average” value (intraocular pressure; II-6 1%, treated right eye (PO), 1 h, average of 10, N PO average 15.8)?
The value was 10.4 mmHg.

What about the “Measured intraocular pressure values, PO, 1 h” value (intraocular pressure; II-6 1%, treated right eye (PO), 1 h, individual animals, N PO average 15.8) of the same molecule?
The value was 7 mmHg and 10 mmHg (3×) and 14 mmHg and 9 mmHg and 8 mmHg and 12 mmHg (3×).

What about the “Measured intraocular pressure values, PO, 4 h, Average” value (intraocular pressure; II-6 1%, treated right eye (PO), 4 h, average of 10, N PO average 15.8) of the same molecule?
Its value is 9.6 mmHg.

And the “Measured intraocular pressure values, PO, 4 h” value (intraocular pressure; II-6 1%, treated right eye (PO), 4 h, individual animals, N PO average 15.8)?
The value was 12 mmHg and 10 mmHg and 9 mmHg and 11 mmHg (2×) and 8 mmHg (3×) and 6 mmHg and 13 mmHg.

What about the “Measured intraocular pressure values, PO, 7 h, Average” value (intraocular pressure; II-6 1%, treated right eye (PO), 7 h (second dose at 6 h), average of 10, N PO average 15.8) of the same molecule?
The value was 9.1 mmHg.

What about the “Measured intraocular pressure values, PO, 7 h” value (intraocular pressure; II-6 1%, treated right eye (PO), 7 h (second dose at 6 h), individual animals, N PO average 15.8) of the same molecule?
The value was 8 mmHg (2×) and 9 mmHg (3×) and 11 mmHg and 6 mmHg (2×) and 13 mmHg and 12 mmHg.

And the “Measured intraocular pressure values, PO, 25 h, Average” value (intraocular pressure; II-6 1%, treated right eye (PO), 25 h, average of 10, N PO average 15.8)?
Its value is 13.7 mmHg.

What about the “Measured intraocular pressure values, PO, 25 h” value (intraocular pressure; II-6 1%, treated right eye (PO), 25 h, individual animals, N PO average 15.8) of the same molecule?
Its value is 13 mmHg (3×) and 16 mmHg (2×) and 18 mmHg and 12 mmHg (4×).

What about the “Measured intraocular pressure values, PO, 31 h, Average” value (intraocular pressure; II-6 1%, treated right eye (PO), 31 h (dose at 30 h), average of 10, N PO average 15.8) of the same molecule?
Its value is 11.1 mmHg.

And the “Measured intraocular pressure values, PO, 31 h” value (intraocular pressure; II-6 1%, treated right eye (PO), 31 h (dose at 30 h), individual animals, N PO average 15.8)?
The value was 10 mmHg (3×) and 12 mmHg (2×) and 9 mmHg (2×) and 11 mmHg and 14 mmHg (2×).
